Data as given in patent publication US20230095836A1, “SUBSTITUTED 5,6-DIPHENYL-3(2H)-PYRIDAZINONES FOR USE AS FUNGICIDES” (FMC Corporation, priority 2020, published 2023).

What was measured:
Assay type in all cases: in vivo
[1] = test system: Phakopsora pachyrhizi; assay: Test D: test solution sprayed on soybean seedlings, inoculated next day with Phakopsora pachyrhizi (Asian soybean rust); visual disease rating (100 = 100% disease control, 0 = no control; dash = not tested)
Procedure, shortened: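 Compounds predissolved in acetone (3% of final volume), suspended at ppm concentrations in 50/50 acetone/water with 250 ppm PEG400, sprayed to run-off on soybean seedlings. Inoculated next day with spores, 24 h saturated atmosphere at 22 °C, then 8 days growth chamber at 22 °C; visual rating, 100 = full control.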

[2] = test system: Alternaria solani; assay: Test F: test suspension sprayed on tomato seedlings, inoculated next day with Alternaria solani (tomato early blight); visual disease rating (100 = 100% disease control, 0 = no control; dash = not tested)
Procedure, shortened: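 Tomato seedlings sprayed to run-off with test suspension, inoculated next day with A. solani spores, held saturated at 27° C. for 48 h, then 20° C. for 3 days. Disease visually rated as % control relative to untreated controls.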

[3] = test system: Puccinia recondita f. sp. tritici; assay: Test B: test solution sprayed on wheat seedlings, inoculated next day with Puccinia recondita f. sp. tritici (wheat leaf rust); disease rating (100 = 100% disease control, 0 = no control; dash = not tested)
Source text: The resulting test suspensions were then used in Tests A-F. The test solution was sprayed to the point of run-off on wheat seedlings. […] A rating of 100 indicates 100% disease control and a rating of 0 indicates no disease control (relative to the controls). A dash (—) indicates the compound was not tested.

[4] = test system: Zymoseptoria tritici; assay: Test A: test solution sprayed on wheat seedlings, inoculated next day with Zymoseptoria tritici (wheat leaf blotch); disease rating (100 = 100% disease control, 0 = no control; dash = not tested)
Procedure, shortened: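 Wheat seedlings sprayed to run-off with test solution, inoculated next day with Z. tritici spores, held 48 h at 24° C in saturated atmosphere, then 17 days at 20° C before rating. Scores are % disease control relative to controls (100 = full control, 0 = none).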

[5] = test system: Blumeria graminis f. sp. tritici; assay: Test C: test suspension sprayed on wheat seedlings, inoculated next day with Blumeria graminis f. sp. tritici (wheat powdery mildew); visual disease rating (100 = 100% disease control, 0 = no control; dash = not tested)
Procedure, shortened: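 Wheat seedlings were sprayed to run-off with test suspension, then dusted next day with Blumeria graminis f. sp. tritici spores. After 8 days at 20 °C in a growth chamber, disease was rated visually as percent control relative to untreated controls.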

[6] = test system: Botrytis cinerea; assay: Test E: test suspension sprayed on tomato seedlings, inoculated next day with Botrytis cinerea (tomato Botrytis); visual disease rating (100 = 100% disease control, 0 = no control; dash = not tested)
Procedure, shortened: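 Tomato seedlings were sprayed to run-off and inoculated next day with Botrytis cinerea spores. They were held 48 h at 20° C in saturated humidity, then 3 days at 24° C. Disease control was rated visually against controls (100 = full, 0 = none).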

Compound | Test D disease control rating ([1]; 50 ppm) | Test F disease control rating ([2]; 50 ppm) | Test B disease control rating ([3]; 50 ppm) | Test A disease control rating ([4]; 50 ppm) | Test C disease control rating ([5]; 50 ppm) | Test E disease control rating ([6]; 50 ppm) | also measured
CON(C)C(=O)c1c(-c2ccc(F)cc2Cl)c(-c2ccc(F)cc2Cl)nn(C)c1=O [Compound 176] | – | – | – | – | – | – | Test D disease control rating ([1]; 250 ppm): 0%; Test F disease control rating ([2]; 250 ppm): 0%; Test B disease control rating ([3]; 250 ppm): 80%; Test A disease control rating ([4]; 250 ppm): 4%; Test C disease control rating ([5]; 250 ppm): 0%; Test E disease control rating ([6]; 250 ppm): 0%
CCc1c(-c2ccc(F)cc2Cl)c(-c2cc(OC)ccc2Cl)nn(C)c1=O [Compound 134, 5-(2-chloro-4-fluorophenyl)-6-(2-chloro-5-methoxyphenyl)-4-ethyl-2-methyl-3(2H)-pyridazinone] | – | – | – | – | – | – | pest or weed control at 50 ppm ([1]; 50 ppm): 96%; pest or weed control at 50 ppm ([2]; 50 ppm): 100%; pest or weed control at 50 ppm ([3]; 50 ppm): 100%; pest or weed control at 50 ppm ([4]; 50 ppm): 100%; pest or weed control at 50 ppm ([5]; 50 ppm): 100%; pest or weed control at 50 ppm ([6]; 50 ppm): 98%
Cn1nc(-c2ccc(F)cc2Cl)c(-c2ccc(F)cc2Cl)c(CC#N)c1=O [Compound 177] | 0% | 0% | 80% | 88% | 0% | 0% | –
COCc1c(-c2ccc(F)cc2Cl)c(-c2ccc(F)cc2Cl)nn(C)c1=O [Compound 122] | 0% | 0% | 0% | 100% | 98% | 53% | –
COc1ccc(Cl)c(-c2nn(C)c(=O)c(OC)c2-c2ccc(F)cc2Br)c1 [Compound 103] | 97% | 99% | 100% | 100% | 100% | 91% | –
COc1cc(F)c(Cl)c(-c2nn(C)c(=O)c(Cl)c2-c2ccc(F)cc2Cl)c1 [Compound 157] | 100% | 100% | 100% | 98% | 100% | 99% | –
COc1c(-c2ccc(F)cc2Cl)c(-c2cccc(Cl)c2Cl)nn(C)c1=O [Compound 108] | 70% | 99% | 100% | 100% | 100% | 98% | –
CCn1nc(-c2cc(OC)cc(OC)c2)c(-c2ccc(F)cc2Cl)cc1=O [Compound 26] | – | – | – | – | – | – | Test D disease control rating ([1]; 250 ppm): 0%; Test F disease control rating ([2]; 250 ppm): 0%; Test B disease control rating ([3]; 250 ppm): 55%; Test A disease control rating ([4]; 250 ppm): 12%; Test C disease control rating ([5]; 250 ppm): 96%; Test E disease control rating ([6]; 250 ppm): 99%
Cc1ccc(Cl)c(-c2nn(C)c(=O)c(C)c2-c2ccc(F)cc2Cl)c1 [Compound 136, 5-(2-chloro-4-fluorophenyl)-6-(2-chloro-5-methylphenyl)-2,4-dimethyl-3(2H)-pyridazinone] | – | – | – | – | – | – | pest or weed control at 50 ppm ([1]; 50 ppm): 97%; pest or weed control at 50 ppm ([2]; 50 ppm): 40%; pest or weed control at 50 ppm ([3]; 50 ppm): 100%; pest or weed control at 50 ppm ([4]; 50 ppm): 99%; pest or weed control at 50 ppm ([5]; 50 ppm): 100%; pest or weed control at 50 ppm ([6]; 50 ppm): 95%
COc1ccc(Cl)c(C2=NN(C)C(=O)C(C)C2c2c(F)cccc2F)c1 (stereo not drawn) [Compound 208] | 0% | 100% | 100% | 96% | 99% | 100% | –
CCc1c(-c2ccc(F)cc2Cl)c(-c2c(Cl)c(OC)cc(OC)c2Br)nn(C)c1=O [Compound 45] | 0% | 0% | 0% | 0% | 69% | 0% | –
Cc1c(-c2ccc(F)cc2Cl)c(-c2cc(O)ccc2Cl)nn(C)c1=O [Compound 161] | 99% | 47% | 99% | 98% | 100% | 96% | –
CCn1nc(-c2cc(OC)cc(OC)c2Cl)c(-c2c(F)cccc2F)c(C)c1=O [Compound 22] | 98% | 79% | 100% | 100% | 98% | 100% | –
COc1ccc(Cl)c(-c2nn(C)c(=O)c(OC)c2-c2ccc(F)cc2F)c1 [Compound 48] | 97% | 99% | 100% | 100% | 99% | 98% | –
COc1c(-c2ccc(F)cc2Cl)c(-c2cc(F)ccc2Cl)nn(C)c1=O [Compound 120] | 77% | 0% | 100% | 100% | 99% | 33% | –
COc1cc(F)c(Br)c(-c2nn(C)c(=O)c(OC)c2-c2ccc(F)cc2Cl)c1 [Compound 165] | 92% | 100% | 100% | 100% | 99% | 95% | –
COc1cc(OC)c(Br)c(-c2nn(C)c(=O)c(OC)c2-c2ccc(F)cc2Cl)c1 [Compound 79] | 100% | 100% | 100% | 100% | 100% | 97% | –
COc1cccc(-c2nn(C)c(=O)c(OC)c2-c2ccc(F)cc2Cl)c1Cl [Compound 146] | 96% | 99% | 100% | 100% | 100% | 98% | –
COc1cc(OC)c(Br)c(-c2nn(C)c(=O)c(Cl)c2-c2ccc(F)cc2Cl)c1 [Compound 77, 6-(2-bromo-3,5-dimethoxyphenyl)-4-chloro-5-(2-chloro-4-fluorophenyl)-2-methyl-3(2H)-pyridazinone] | – | – | – | – | – | – | pest or weed control at 50 ppm ([1]; 50 ppm): 100%; pest or weed control at 50 ppm ([2]; 50 ppm): 100%; pest or weed control at 50 ppm ([3]; 50 ppm): 100%; pest or weed control at 50 ppm ([4]; 50 ppm): 100%; pest or weed control at 50 ppm ([5]; 50 ppm): 99%; pest or weed control at 50 ppm ([6]; 50 ppm): 97%
CCn1nc(-c2cc(OC)cc(OC)c2Cl)c(-c2ccc(F)cc2Cl)cc1=O [Compound 202] | 44% | 0% | 68% | 99% | 72% | 99% | –
CCn1nc(-c2cc(OC)cc(OC)c2Br)c(-c2c(F)cccc2F)cc1=O [Compound 17] | 73% | 0% | 99% | 98% | 94% | 99% | –
Cn1nc(-c2cccc(Cl)c2Cl)c(-c2ccc(F)cc2Cl)c(Cl)c1=O [Compound 104] | 100% | 99% | 100% | 100% | 100% | 97% | –
COc1cc(C#N)cc(-c2cc(=O)n(C)nc2-c2cc(C#N)cc(OC)c2)c1 [Compound 204] | 39% | 0% | 0% | 2% | 0% | 0% | –
Cn1nc(-c2ccc(F)cc2Cl)c(-c2ccc(F)cc2Cl)c(CO)c1=O [Compound 168] | 0% | 0% | 96% | 100% | 72% | 81% | –
COc1ccc(Cl)c(-c2nn(C)c(=O)c(Br)c2-c2c(F)cccc2F)c1 [Compound 69] | 100% | 100% | 99% | 100% | 100% | 100% | –
CCN1N=C(c2cc(OC)cc(OC)c2)C(c2ccc(F)cc2Cl)CC1=O (stereo not drawn) [Compound 19] | – | – | – | – | – | – | Test D disease control rating ([1]; 250 ppm): 0%; Test F disease control rating ([2]; 250 ppm): 0%; Test B disease control rating ([3]; 250 ppm): 0%; Test A disease control rating ([4]; 250 ppm): 0%; Test C disease control rating ([5]; 250 ppm): 0%; Test E disease control rating ([6]; 250 ppm): 0%
